Results taken from patent US10081609B2, “Compounds for inducing proliferation and differentiation of cells, and methods of use thereof” (The Broad Institute, Inc., priority 2013, dated 2018).

Columns and labels:
iHeps = test: Gene expression profiles of treated iHeps (Luminex); type: cell-based, human
Method: Cells were lysed using RLT buffer (Qiagen) or Trizol (Invitrogen) and purified using the Mini-RNeasy kit (Qiagen). Gene expression was determined using Luminex analysis, as previously described. Briefly, total RNA was immobilized on a Qiagen turbo capture 384-well plate, and reverse-transcribed using oligodT priming A biotinylated FlexMap tag sequence unique to each gene of interest and a phosphorylated downstream probe were then added to resulting cDNAs to generate biotinylated FlexMap-tagged amplicons. Universal PCR was then performed for 35 cycles using a biotinylated T7 forward primer and T3 reverse primer in buffer with dNTPs and Taq polymerase. FlexMap microsphere beads conjugated with antitag oligonucleotides were then added and allowed to hybridize. Amplicons were captured by streptavidin-phyoerythrin, and 100 events per bead were analyzed for internal bead color and phyoerythrin reporter fluorescence on a Luminex FlexMap 3D analyzer. Data for replicate loadings, expressed in mean fluorescent intensity of at least 100 beads per sample, were scaled to the human transferrin gene and row-normalized for heat map representation using GeneE open software (Broad Institute).
The ability of compounds of the invention to affect the differentiation and maturation of iHeps was tested. Undifferentiated iPS cells were cultured on Matrigel, supported by primary mouse embryonic fibroblasts. Once confluent, iPS cells were transitioned to differentiation media, with sequential addition of growth factors (Activin A, BMP-4, bFGF, HGF, and OSM) to guide differentiation, first into endoderm, then into hepatic progenitor cells and finally into iHeps. Compound treatment started on day 21 post initiation of differentiation and acted over a period of 9 days. FH1 and FPH2 were used to treat iHeps. FH1 doubled albumin secretion during primary screening (FIG. 4A left) in a dose-responsive manner (FIG. 4A right).
Euclidian clustering analyses groups untreated cells with fetal hepatocytes and treated cells with mature hepatocytes (FIG. 4C left). Of particular interest are ABC transporters, CYP3A4 and GSTP1 expression levels. ABC transporters are known to mature after birth. ABCB11, also known as bile-salt export pump (BSEP), increased ˜3 fold and ˜4 fold in expression levels with FPH2 and FH1 treatment, respectively, compared to untreated iHeps. In contrast, GSTP1 expression, whose levels decrease with maturity, remained low upon FPH2 and FH1 treatment compared to untreated iHeps (FIG. 4C right).

FAK = FAK (Homo sapiens, UniProt Q05397); test: Kinome analysis (panel of kinases); type: biochemical
Method: (§1) Selected compounds of the invention (FPH1 and FPH2; both at 1 μM concentration) were screened against a panel of kinases (FIG. 17).

NEK9 = NEK9 (Homo sapiens, UniProt Q8TD19); test: Kinome analysis (panel of kinases); type: biochemical
Sequence of NEK9 (Q8TD19 whole entry, species assumed): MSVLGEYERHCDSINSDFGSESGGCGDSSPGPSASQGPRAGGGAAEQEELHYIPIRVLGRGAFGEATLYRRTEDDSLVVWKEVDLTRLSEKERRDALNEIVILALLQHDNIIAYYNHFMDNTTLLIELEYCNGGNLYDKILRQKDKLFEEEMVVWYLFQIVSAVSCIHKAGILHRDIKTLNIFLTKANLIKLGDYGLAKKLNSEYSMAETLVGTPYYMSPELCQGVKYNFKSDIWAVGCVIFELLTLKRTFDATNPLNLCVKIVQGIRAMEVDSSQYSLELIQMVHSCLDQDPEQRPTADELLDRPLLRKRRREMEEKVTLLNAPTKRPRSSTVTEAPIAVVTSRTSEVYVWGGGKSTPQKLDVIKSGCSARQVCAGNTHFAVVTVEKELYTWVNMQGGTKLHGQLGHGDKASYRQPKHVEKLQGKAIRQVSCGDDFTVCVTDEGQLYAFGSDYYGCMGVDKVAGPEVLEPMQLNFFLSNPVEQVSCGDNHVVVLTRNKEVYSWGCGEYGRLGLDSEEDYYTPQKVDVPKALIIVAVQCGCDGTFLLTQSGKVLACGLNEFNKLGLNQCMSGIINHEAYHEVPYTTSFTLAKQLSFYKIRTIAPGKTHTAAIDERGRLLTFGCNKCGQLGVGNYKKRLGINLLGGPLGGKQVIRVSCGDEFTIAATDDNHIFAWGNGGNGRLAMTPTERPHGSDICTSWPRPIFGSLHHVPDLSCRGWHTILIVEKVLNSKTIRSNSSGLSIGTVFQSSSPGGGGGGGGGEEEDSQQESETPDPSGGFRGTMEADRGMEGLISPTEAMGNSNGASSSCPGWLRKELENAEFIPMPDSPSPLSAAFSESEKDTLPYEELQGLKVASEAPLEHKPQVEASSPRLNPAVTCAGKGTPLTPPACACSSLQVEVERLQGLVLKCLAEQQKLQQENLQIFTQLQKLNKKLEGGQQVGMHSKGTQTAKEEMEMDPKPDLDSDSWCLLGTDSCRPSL
Method: as §1

MAPKAPKV (PRAK) = MAPKAPKV (PRAK) (Homo sapiens, UniProt Q8IW41); test: Kinome analysis (panel of kinases); type: biochemical; conditions: read-out: MAPKAPKV (PRAK) inhibition
Method: as §1

EphB4 = EphB4 (Homo sapiens, UniProt P54760); test: Kinome analysis (panel of kinases); type: biochemical
Sequence of EphB4 (P54760 16-987, species assumed): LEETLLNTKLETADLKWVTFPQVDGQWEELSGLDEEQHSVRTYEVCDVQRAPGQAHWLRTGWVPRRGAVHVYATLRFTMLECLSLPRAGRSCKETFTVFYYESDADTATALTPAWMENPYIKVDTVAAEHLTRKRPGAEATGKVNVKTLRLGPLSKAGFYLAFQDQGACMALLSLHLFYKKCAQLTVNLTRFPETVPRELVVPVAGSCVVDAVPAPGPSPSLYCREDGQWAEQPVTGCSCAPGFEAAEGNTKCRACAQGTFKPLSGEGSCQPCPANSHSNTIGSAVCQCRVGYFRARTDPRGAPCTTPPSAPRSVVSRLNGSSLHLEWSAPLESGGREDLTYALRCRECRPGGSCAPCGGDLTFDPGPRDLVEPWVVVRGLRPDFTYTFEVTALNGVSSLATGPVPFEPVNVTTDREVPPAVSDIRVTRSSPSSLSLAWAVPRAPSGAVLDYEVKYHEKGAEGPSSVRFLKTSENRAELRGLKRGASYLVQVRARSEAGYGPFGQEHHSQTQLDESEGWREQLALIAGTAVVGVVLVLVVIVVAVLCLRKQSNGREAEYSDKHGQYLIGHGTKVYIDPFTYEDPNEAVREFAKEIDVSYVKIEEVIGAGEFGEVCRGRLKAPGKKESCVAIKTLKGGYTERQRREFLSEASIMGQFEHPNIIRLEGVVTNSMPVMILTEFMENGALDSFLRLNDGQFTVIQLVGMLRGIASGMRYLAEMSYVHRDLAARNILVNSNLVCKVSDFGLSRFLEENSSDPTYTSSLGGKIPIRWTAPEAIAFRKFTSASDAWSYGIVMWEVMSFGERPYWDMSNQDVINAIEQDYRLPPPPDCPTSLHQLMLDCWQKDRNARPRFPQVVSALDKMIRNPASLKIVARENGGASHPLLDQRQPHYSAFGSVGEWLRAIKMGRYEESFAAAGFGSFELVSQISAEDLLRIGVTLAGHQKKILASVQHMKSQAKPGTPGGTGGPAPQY
Method: as §1

DAPK1 = DAPK1 (Homo sapiens, UniProt P53355); test: Kinome analysis (panel of kinases); type: biochemical
Method: as §1

eEF-2K = eEF-2K (Homo sapiens, UniProt O00418); test: Kinome analysis (panel of kinases); type: biochemical
Method: as §1

Ron = Ron (Homo sapiens, UniProt Q04912); test: Kinome analysis (panel of kinases); type: biochemical
Method: as §1

PI3KCγ = test: Kinome analysis (panel of kinases); type: biochemical; conditions: 1 μM
Method: as §1

CLK4 = CLK4 (Homo sapiens, UniProt Q9HAZ1); test: Kinome analysis (panel of kinases); type: biochemical
Method: as §1

ALK = ALK (Homo sapiens, UniProt Q9UM73); test: Kinome analysis (panel of kinases); type: biochemical
Sequence of ALK (Q9UM73 19-1620, species assumed): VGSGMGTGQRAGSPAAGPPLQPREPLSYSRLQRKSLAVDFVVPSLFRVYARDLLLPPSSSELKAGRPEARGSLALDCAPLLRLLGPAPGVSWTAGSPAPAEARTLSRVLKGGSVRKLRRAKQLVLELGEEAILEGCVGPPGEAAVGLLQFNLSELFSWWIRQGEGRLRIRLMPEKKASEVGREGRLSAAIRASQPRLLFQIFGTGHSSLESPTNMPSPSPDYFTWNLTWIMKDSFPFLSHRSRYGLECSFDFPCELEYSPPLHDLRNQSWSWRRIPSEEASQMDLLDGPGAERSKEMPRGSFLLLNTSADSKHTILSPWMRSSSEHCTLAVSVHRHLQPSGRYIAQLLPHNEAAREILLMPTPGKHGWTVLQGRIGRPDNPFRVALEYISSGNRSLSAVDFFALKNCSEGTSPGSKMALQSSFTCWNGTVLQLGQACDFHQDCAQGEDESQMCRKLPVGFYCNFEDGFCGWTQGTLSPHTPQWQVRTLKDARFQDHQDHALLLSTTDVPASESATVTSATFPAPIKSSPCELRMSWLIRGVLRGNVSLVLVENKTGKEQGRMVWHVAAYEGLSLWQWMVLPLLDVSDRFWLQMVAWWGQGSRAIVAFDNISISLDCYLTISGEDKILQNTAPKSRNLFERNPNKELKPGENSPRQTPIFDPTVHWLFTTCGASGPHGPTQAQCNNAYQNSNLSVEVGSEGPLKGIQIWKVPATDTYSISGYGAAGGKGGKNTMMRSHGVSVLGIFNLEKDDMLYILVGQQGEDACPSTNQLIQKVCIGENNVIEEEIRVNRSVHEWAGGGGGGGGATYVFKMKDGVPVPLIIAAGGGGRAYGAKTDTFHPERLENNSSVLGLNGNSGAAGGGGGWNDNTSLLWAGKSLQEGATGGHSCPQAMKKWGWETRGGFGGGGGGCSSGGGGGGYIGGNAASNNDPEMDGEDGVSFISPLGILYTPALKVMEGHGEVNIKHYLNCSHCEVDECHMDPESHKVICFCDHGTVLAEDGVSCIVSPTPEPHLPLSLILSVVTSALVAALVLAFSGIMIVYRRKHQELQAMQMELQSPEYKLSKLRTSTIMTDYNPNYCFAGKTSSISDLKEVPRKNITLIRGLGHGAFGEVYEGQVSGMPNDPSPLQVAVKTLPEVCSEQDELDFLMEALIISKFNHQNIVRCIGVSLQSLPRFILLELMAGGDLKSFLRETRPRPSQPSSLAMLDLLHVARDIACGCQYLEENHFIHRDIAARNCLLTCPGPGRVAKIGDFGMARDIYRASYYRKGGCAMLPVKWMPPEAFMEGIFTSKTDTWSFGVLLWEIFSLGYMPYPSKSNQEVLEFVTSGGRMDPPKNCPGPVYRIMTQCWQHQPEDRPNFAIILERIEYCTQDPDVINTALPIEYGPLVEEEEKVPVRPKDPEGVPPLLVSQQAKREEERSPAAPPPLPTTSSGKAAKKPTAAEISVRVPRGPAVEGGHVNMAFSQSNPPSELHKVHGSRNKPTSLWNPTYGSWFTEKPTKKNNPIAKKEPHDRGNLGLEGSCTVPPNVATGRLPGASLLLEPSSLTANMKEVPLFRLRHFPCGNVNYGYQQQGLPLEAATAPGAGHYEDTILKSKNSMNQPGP
Method: as §1

CDK5 = CDK5 (Homo sapiens, UniProt Q00535); test: Kinome analysis (panel of kinases); type: biochemical
Sequence of CDK5 (Q00535 whole entry, species assumed): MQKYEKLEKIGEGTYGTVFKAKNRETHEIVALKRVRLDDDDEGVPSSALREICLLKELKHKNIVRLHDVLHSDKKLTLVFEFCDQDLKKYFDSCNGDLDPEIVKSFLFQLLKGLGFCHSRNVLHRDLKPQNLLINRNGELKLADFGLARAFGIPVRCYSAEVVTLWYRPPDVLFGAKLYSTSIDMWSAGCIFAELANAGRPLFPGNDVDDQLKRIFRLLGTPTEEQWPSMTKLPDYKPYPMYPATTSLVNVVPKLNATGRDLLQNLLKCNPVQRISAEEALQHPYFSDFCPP
Sequence of CDK5 (Q15078 whole entry partner, species assumed): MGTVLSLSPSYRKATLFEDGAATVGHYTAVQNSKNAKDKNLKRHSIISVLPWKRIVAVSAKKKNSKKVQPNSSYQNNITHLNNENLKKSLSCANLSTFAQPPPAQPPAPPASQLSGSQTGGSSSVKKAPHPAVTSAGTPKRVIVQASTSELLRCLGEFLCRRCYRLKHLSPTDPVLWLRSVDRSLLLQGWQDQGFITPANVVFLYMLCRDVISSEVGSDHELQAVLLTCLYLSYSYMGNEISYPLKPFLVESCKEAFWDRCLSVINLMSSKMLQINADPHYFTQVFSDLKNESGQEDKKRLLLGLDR
Method: as §1

RSK2 = RSK2 (Homo sapiens, UniProt P51812); test: Kinome analysis (panel of kinases); type: biochemical
Method: as §1

FMS = FMS (Homo sapiens, UniProt P07333); test: Kinome analysis (panel of kinases); type: biochemical
Sequence of FMS (P07333 20-972, species assumed): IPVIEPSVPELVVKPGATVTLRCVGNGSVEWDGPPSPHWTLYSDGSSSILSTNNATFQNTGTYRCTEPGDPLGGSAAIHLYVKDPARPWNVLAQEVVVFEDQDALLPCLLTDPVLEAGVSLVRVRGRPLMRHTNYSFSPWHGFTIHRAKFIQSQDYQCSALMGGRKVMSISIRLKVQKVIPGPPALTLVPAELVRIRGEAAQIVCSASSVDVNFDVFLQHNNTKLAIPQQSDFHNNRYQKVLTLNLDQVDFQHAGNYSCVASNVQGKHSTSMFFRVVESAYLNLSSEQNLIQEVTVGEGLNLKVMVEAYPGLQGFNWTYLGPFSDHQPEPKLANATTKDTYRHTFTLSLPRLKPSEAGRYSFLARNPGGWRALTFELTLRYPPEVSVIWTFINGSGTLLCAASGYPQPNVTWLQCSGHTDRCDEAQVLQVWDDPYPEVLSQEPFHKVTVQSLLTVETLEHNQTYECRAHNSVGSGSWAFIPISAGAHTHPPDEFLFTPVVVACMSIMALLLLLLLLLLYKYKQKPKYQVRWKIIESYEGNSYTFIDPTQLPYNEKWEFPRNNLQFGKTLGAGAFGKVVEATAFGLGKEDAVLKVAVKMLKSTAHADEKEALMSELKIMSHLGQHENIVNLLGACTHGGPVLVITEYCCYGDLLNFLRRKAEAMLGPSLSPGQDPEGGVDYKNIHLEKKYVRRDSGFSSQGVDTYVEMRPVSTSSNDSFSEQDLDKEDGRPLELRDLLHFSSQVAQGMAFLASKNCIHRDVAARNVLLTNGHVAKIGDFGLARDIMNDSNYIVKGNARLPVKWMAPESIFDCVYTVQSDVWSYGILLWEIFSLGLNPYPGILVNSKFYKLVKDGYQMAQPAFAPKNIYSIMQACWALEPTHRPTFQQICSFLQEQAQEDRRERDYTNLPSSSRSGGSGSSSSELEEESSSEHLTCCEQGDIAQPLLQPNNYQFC
Method: as §1

- inhibition at 1 µM (FAK): 6.7 to 18.4%
- inhibition at 1 µM (MAPKAPKV (PRAK)): 6.7 to 18.4%
- inhibition at 1 µM (EphB4): 18.4 to 30%
- inhibition at 1 µM (DAPK1): 6.7 to 18.4%
- inhibition at 1 µM (eEF-2K): 6.7 to 18.4%
- inhibition at 1 µM (Ron): 6.7 to 18.4%
- inhibition at 1 µM (CLK4): 6.7 to 18.4%
- inhibition at 1 µM (ALK): 23%
- remaining activity at 1 µM (ALK): 77%
- inhibition at 1 µM (CDK5): 6.7 to 18.4%
- inhibition at 1 µM (RSK2): 6.7 to 18.4%
- inhibition at 1 µM (FMS): 28%
- remaining activity at 1 µM (FMS): 72%
SMILES: Cc1ccc(Cl)cc1N(CC(=O)Nc1c(F)cccc1F)S(C)(=O)=O [FPH2, 2-(N-(5-chloro-2-methylphenyl)methylsulfonamido)-N-(2,6-difluorophenyl)acetamide]
- ABCB11 (BSEP) expression level increase compared to untreated iHeps (iHeps): ~3 fold
- GSTP1 expression compared to untreated iHeps (iHeps): remained low
- inhibition at 1 µM (NEK9): 6.7 to 18.4%
- PI3KCγ inhibition (PI3KCγ): 6.7-18.4%
